Test results reported in patent US7192906B2, “Substituted pyrazole derivatives, production process thereof, and herbicide compositions containing the derivatives” (SDS Biotech K.K., priority 2001, dated 2007).

What was measured:
Type in all cases: in vivo
[1] = test system: wheat (Triticum aestivum); assay: Test Example 1 upland field foliage treatment, crop phytotoxicity; settings: Table 4, upland field foliage treatment, index 0-5
In short: (§1)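 Post-emergence foliar spray, 1 kg a.i./ha, wettable powder diluted in water, applied 14 d after sowing in upland soil. Rating 21 d post-application, 0–5 scale: 5 ≥90%, 4 70–<90%, 3 50–<70%, 2 30–<50%, 1 10–<30%, 0 <10% effect or injury.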

soybean (Glycine max) [2] = assay: as above; settings: Table 4, upland field foliage treatment, index 0-5
In short: as §1

Scirpus juncoides = assay: Test Example 3 paddy field treatment; settings: paddy field treatment, wettable powder, active ingredient 1 kg per hectare, 21st day after the dropping, index 0-5
In short: (§2)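 Scoring used a 0–5 scale of herbicidal effect or phytotoxicity, from <10% to ≥90%, taken 21 days after treatment. Treatment was 1 kg a.i./ha as diluted wettable powder dripped onto 4 cm-deep flooded pots sown with the weeds, 10 days after transplanting two-leaf Koshihikari rice.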

Echinochloa crusgalli = assay: Test Example 3 paddy field treatment; settings: paddy field treatment, wettable powder, active ingredient 1 kg per hectare, 21st day after the dropping, index 0-5
In short: as §2

Ammannia multiflora = assay: Test Example 3 paddy field treatment; settings: paddy field treatment, wettable powder, active ingredient 1 kg per hectare, 21st day after the dropping, index 0-5
In short: as §2

Monochoria vaginalis = assay: Test Example 3 paddy field treatment; settings: paddy field treatment, wettable powder, active ingredient 1 kg per hectare, 21st day after the dropping, index 0-5
In short: as §2

Setaria viridis [3] = assay: Test Example 2 upland soil treatment; settings: Table 5, upland soil treatment, index 0-5
In short: (§3)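 Seeds are sown into upland soil and covered by roughly 1 cm of soil, then the compound, formulated as a wettable powder and diluted with water, is applied uniformly to the soil surface the following day at 1 kg active ingredient per hectare. Herbicidal effect or phytotoxicity is graded 0 to 5 after 21 days.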

Digitaria adscendens [4] = assay: Test Example 2 upland soil treatment; settings: Table 5, upland soil treatment, index 0-5
In short: as §3

Chenopodium album [5] = assay: Test Example 2 upland soil treatment; settings: Table 5, upland soil treatment, index 0-5
In short: as §3

Stellaria media [6] = assay: Test Example 2 upland soil treatment; settings: Table 5, upland soil treatment, index 0-5
In short: as §3

Setaria viridis [7] = assay: Test Example 1 upland field foliage treatment; settings: Table 4, upland field foliage treatment, index 0-5
In short: as §1

Digitaria adscendens [8] = assay: Test Example 1 upland field foliage treatment; settings: Table 4, upland field foliage treatment, index 0-5
In short: as §1

Chenopodium album [9] = assay: Test Example 1 upland field foliage treatment; settings: Table 4, upland field foliage treatment, index 0-5
In short: as §1

Stellaria media [10] = assay: Test Example 1 upland field foliage treatment; settings: Table 4, upland field foliage treatment, index 0-5
In short: as §1

Rice (Oryza sativa) = assay: Test Example 3 paddy field treatment, crop phytotoxicity; settings: paddy field treatment, transplanted rice Koshihikari, wettable powder, active ingredient 1 kg per hectare, 21st day after the dropping, index 0-5
In short: as §2

[11] = test system: wheat (Triticum aestivum); assay: Test Example 2 upland soil treatment, crop phytotoxicity; settings: Table 5, upland soil treatment, index 0-5
In short: as §3

soybean (Glycine max) [12] = assay: as above; settings: Table 5, upland soil treatment, index 0-5
In short: as §3

Compound	Herbicidal activity (phytotoxicity) TA: Wheat (Triticum aestivum) [1]	Herbicidal activity (phytotoxicity) GM: Soybean (Glycine max) (soybean (Glycine max) [2])	Herbicidal activity SJ (Scirpus juncoides)	Herbicidal activity EC (Echinochloa crusgalli)	Herbicidal activity AM (Ammannia multiflora)	Herbicidal activity MV (Monochoria vaginalis)	Herbicidal activity SV: Setaria viridis (Setaria viridis [3])	Herbicidal activity DA: Digitaria adscendens (Digitaria adscendens [4])	Herbicidal activity CA: Chenopodium album (Chenopodium album [5])	Herbicidal activity SM: Stellaria media (Stellaria media [6])	Herbicidal activity SV: Setaria viridis (Setaria viridis [7])	Herbicidal activity DA: Digitaria adscendens (Digitaria adscendens [8])	Herbicidal activity CA: Chenopodium album (Chenopodium album [9])	Herbicidal activity SM: Stellaria media (Stellaria media [10])	Herbicidal activity OS (phytotoxicity to rice) (Rice (Oryza sativa))	Herbicidal activity (phytotoxicity) TA: Wheat (Triticum aestivum) [11]	Herbicidal activity (phytotoxicity) GM: Soybean (Glycine max) (soybean (Glycine max) [12])
CNC(=O)C(Cn1cc(Cl)c(-c2ccccc2)n1)=NOC [Compound 14]	0 (herbicidal effect of not less than 0% and less than 10%, or phytotoxicity of 0% or more and less than 10%)	0 (herbicidal effect of not less than 0% and less than 10%, or phytotoxicity of 0% or more and less than 10%)	5 (herbicidal effect of not less than 90%, or phytotoxicity of 90% or more)	5 (herbicidal effect of not less than 90%, or phytotoxicity of 90% or more)	5 (herbicidal effect of not less than 90%, or phytotoxicity of 90% or more)	5 (herbicidal effect of not less than 90%, or phytotoxicity of 90% or more)	5 (herbicidal effect of not less than 90%, or phytotoxicity of 90% or more)	5 (herbicidal effect of not less than 90%, or phytotoxicity of 90% or more)	5 (herbicidal effect of not less than 90%, or phytotoxicity of 90% or more)	5 (herbicidal effect of not less than 90%, or phytotoxicity of 90% or more)	5 (herbicidal effect of not less than 90%, or phytotoxicity of 90% or more)	5 (herbicidal effect of not less than 90%, or phytotoxicity of 90% or more)	5 (herbicidal effect of not less than 90%, or phytotoxicity of 90% or more)	5 (herbicidal effect of not less than 90%, or phytotoxicity of 90% or more)	1 (herbicidal effect of not less than 10% and less than 30%, or phytotoxicity of 10% or more and less than 30%)	0 (herbicidal effect of not less than 0% and less than 10%, or phytotoxicity of 0% or more and less than 10%)	1 (herbicidal effect of not less than 10% and less than 30%, or phytotoxicity of 10% or more and less than 30%)
CON=C(Cn1cc(C)c(-c2ccc(Cl)cc2)n1)C(N)=O [Compound 17]	0 (herbicidal effect of not less than 0% and less than 10%, or phytotoxicity of 0% or more and less than 10%)	0 (herbicidal effect of not less than 0% and less than 10%, or phytotoxicity of 0% or more and less than 10%)	4 (herbicidal effect of not less than 70% and less than 90%, or phytotoxicity of 70% or more and less than 90%)	4 (herbicidal effect of not less than 70% and less than 90%, or phytotoxicity of 70% or more and less than 90%)	5 (herbicidal effect of not less than 90%, or phytotoxicity of 90% or more)	5 (herbicidal effect of not less than 90%, or phytotoxicity of 90% or more)	4 (herbicidal effect of not less than 70% and less than 90%, or phytotoxicity of 70% or more and less than 90%)	4 (herbicidal effect of not less than 70% and less than 90%, or phytotoxicity of 70% or more and less than 90%)	4 (herbicidal effect of not less than 70% and less than 90%, or phytotoxicity of 70% or more and less than 90%)	4 (herbicidal effect of not less than 70% and less than 90%, or phytotoxicity of 70% or more and less than 90%)	5 (herbicidal effect of not less than 90%, or phytotoxicity of 90% or more)	5 (herbicidal effect of not less than 90%, or phytotoxicity of 90% or more)	5 (herbicidal effect of not less than 90%, or phytotoxicity of 90% or more)	5 (herbicidal effect of not less than 90%, or phytotoxicity of 90% or more)	0 (herbicidal effect of not less than 0% and less than 10%, or phytotoxicity of 0% or more and less than 10%)	0 (herbicidal effect of not less than 0% and less than 10%, or phytotoxicity of 0% or more and less than 10%)	0 (herbicidal effect of not less than 0% and less than 10%, or phytotoxicity of 0% or more and less than 10%)
CNC(=O)C(Cn1cc(C)c(-c2ccccc2)n1)=NOC [Compound 18]	0 (herbicidal effect of not less than 0% and less than 10%, or phytotoxicity of 0% or more and less than 10%)	0 (herbicidal effect of not less than 0% and less than 10%, or phytotoxicity of 0% or more and less than 10%)	5 (herbicidal effect of not less than 90%, or phytotoxicity of 90% or more)	5 (herbicidal effect of not less than 90%, or phytotoxicity of 90% or more)	5 (herbicidal effect of not less than 90%, or phytotoxicity of 90% or more)	5 (herbicidal effect of not less than 90%, or phytotoxicity of 90% or more)	5 (herbicidal effect of not less than 90%, or phytotoxicity of 90% or more)	5 (herbicidal effect of not less than 90%, or phytotoxicity of 90% or more)	5 (herbicidal effect of not less than 90%, or phytotoxicity of 90% or more)	5 (herbicidal effect of not less than 90%, or phytotoxicity of 90% or more)	5 (herbicidal effect of not less than 90%, or phytotoxicity of 90% or more)	5 (herbicidal effect of not less than 90%, or phytotoxicity of 90% or more)	5 (herbicidal effect of not less than 90%, or phytotoxicity of 90% or more)	5 (herbicidal effect of not less than 90%, or phytotoxicity of 90% or more)	0 (herbicidal effect of not less than 0% and less than 10%, or phytotoxicity of 0% or more and less than 10%)	0 (herbicidal effect of not less than 0% and less than 10%, or phytotoxicity of 0% or more and less than 10%)	0 (herbicidal effect of not less than 0% and less than 10%, or phytotoxicity of 0% or more and less than 10%)
CCNC(=O)C(Cn1cc(C)c(-c2ccccc2)n1)=NOC [Compound 19]	0 (herbicidal effect of not less than 0% and less than 10%, or phytotoxicity of 0% or more and less than 10%)	0 (herbicidal effect of not less than 0% and less than 10%, or phytotoxicity of 0% or more and less than 10%)	5 (herbicidal effect of not less than 90%, or phytotoxicity of 90% or more)	5 (herbicidal effect of not less than 90%, or phytotoxicity of 90% or more)	5 (herbicidal effect of not less than 90%, or phytotoxicity of 90% or more)	5 (herbicidal effect of not less than 90%, or phytotoxicity of 90% or more)	5 (herbicidal effect of not less than 90%, or phytotoxicity of 90% or more)	5 (herbicidal effect of not less than 90%, or phytotoxicity of 90% or more)	5 (herbicidal effect of not less than 90%, or phytotoxicity of 90% or more)	5 (herbicidal effect of not less than 90%, or phytotoxicity of 90% or more)	5 (herbicidal effect of not less than 90%, or phytotoxicity of 90% or more)	5 (herbicidal effect of not less than 90%, or phytotoxicity of 90% or more)	5 (herbicidal effect of not less than 90%, or phytotoxicity of 90% or more)	5 (herbicidal effect of not less than 90%, or phytotoxicity of 90% or more)	0 (herbicidal effect of not less than 0% and less than 10%, or phytotoxicity of 0% or more and less than 10%)	0 (herbicidal effect of not less than 0% and less than 10%, or phytotoxicity of 0% or more and less than 10%)	0 (herbicidal effect of not less than 0% and less than 10%, or phytotoxicity of 0% or more and less than 10%)
